Results taken from EP1342719B1, “Benzodiazepine derivatives useful as CCK-Receptor Antagonists” (Ferring BV, priority 1992, dated 1993).
Where two headings read alike, the source gives them in different places.

Legend:
[1] = test system: pentagastrin-stimulated gastric acid secretion; test: Inhibition of pentagastrin-stimulated gastric acid secretion in dog (Heidenhain pouch); format: in vivo, male beagle dogs; details: maximum inhibition of stimulated acid output, oral, pentagastrin 8 µg/kg/hr infusion, mean for 3 - 5 animals
Description: Assays were performed using male beagle dogs (7 - 12 kg) two months after surgical preparation of Heidenhain pouches following the conventional procedure. Each dog was used only once per week.
The animals were deprived of food with free access to water for 18 hr prior to the experiment. The gastric juice was collected from the gastric canula by gravity drainage every 15 min, and acid output was determined by automatic titration with 0.05 N NaOH to pH 7.0 (Comtite-7, Hiranuma, Tokyo, Japan). Drugs were administered orally 3 hr after the start of the pentagastrin (8 µg/kg/hr) infusion. The effect of each drug was calculated as the percentage inhibition of stimulated acid output. […] Each result is a mean for 3 - 5 animals.

[2] = biological target: T1, CCK-B receptors (Rattus norvegicus, UniProt P30553); test: Measurement of binding affinity for CCK-B receptors ([125I]BH-CCK-8 displacement, brain membrane preparation); set-up: species or system SD rats; details: for A/B Ratio: selectivity, ratio IC50 (CCK-A)/IC50 (CCK-B)
T1 construct: the whole brain was immediately excised from each of the rats and homogenized; from tissue; host or cells: SD rat whole-brain membrane preparation
Description: About 100 SD rats were decapitated without anaesthesia, the whole brain was immediately excised from each of the rats and homogenized in 10-fold volume of 0.32 M aqueous solution of sucrose by the use of a Teflon-coated homogenizer, the homogenate thus obtained was centrifuged for ten minutes at 900 g by the use of a cooled centrifuge, and the supernatant was further centrifuged for 15 minutes at 11500 g. The precipitate thus obtained was dispersed in 50 mM Tris-HCl buffer (pH 7.4) containing 0.08% Triton X-100, this suspension was allowed to stand for 30 minutes and again centrifuged for 15 minutes at 11500 g, the precipitate thus obtained was washed twice with 5 mM Tris-HCl buffer and twice with 50 mM Tris-HCl buffer in that order with centrifugal separation, the washed precipitate was suspended in 50 mM Tris-HCl buffer, and the suspension thus obtained was stored at -80°C until the membrane preparation was required.
The membrane preparations were warmed to room temperature, diluted with 10 mM HEPES buffer (containing 130 mM NaCl, 5 mM MgCl2, 1 mM EGTA and 0.25 mg/ml bacitracin; pH 6.5) and incubated at 25°C for 120 minutes in the presence of [^125I]BH-CCK-8 and the test compound, then separated by suction filtration. Non-specific binding was determined in the presence of 1 µM CCK-8. The amount of labelled ligand bound to the receptor was measured by the use of a γ-counter; IC50 values were determined, being that concentration of test compound required to inhibit specific binding by 50%.

[3] = biological target: T2, CCK-A receptors (Rattus norvegicus, UniProt P30551); test: Measurement of binding affinity for CCK-A receptors ([3H]L-364,718 displacement, pancreas membrane preparation); set-up: species or system SD rat
T2 construct: The pancreas of an SD rat was homogenized; from tissue; host or cells: SD rat pancreas membrane preparation
T2 sequence (P30551 1-444): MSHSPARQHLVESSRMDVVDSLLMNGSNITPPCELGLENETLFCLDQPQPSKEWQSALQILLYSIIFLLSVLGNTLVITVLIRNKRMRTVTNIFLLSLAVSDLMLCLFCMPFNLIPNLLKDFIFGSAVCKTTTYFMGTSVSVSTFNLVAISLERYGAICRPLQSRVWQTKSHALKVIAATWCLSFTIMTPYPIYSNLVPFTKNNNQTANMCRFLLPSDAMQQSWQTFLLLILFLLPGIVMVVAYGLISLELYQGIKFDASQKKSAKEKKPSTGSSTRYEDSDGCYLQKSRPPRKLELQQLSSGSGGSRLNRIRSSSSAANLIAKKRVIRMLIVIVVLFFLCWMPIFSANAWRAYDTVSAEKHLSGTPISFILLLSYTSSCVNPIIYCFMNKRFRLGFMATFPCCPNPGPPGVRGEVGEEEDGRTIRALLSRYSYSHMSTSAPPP
Description: The pancreas of an SD rat was homogenized in a 20-fold volume of 50 mM Tris-HCl buffer (pH 7.7) by the use of a Polytrone-type homogenizer, the homogenate was twice centrifuged for 10 minutes at 50000 g by the use of an ultra-centrifuge, the precipitate thus obtained was suspended in a 40-fold volume of 50 mM Tris-HCl buffer (containing 0.2% BSA, 5 mM MgCl2, 0.1 mg/ml bacitracin and 5 mM DTT; pH 7.7), and the suspension was stored at -80°C until the membrane preparations were required.
The membrane preparations were then warmed to room temperature, diluted 1:10 with the buffer and incubated at 37°C for 30 minutes in the presence of [^3H]L-364,718 and the test compound then separated by suction filtration. Non-specific binding was determined in the presence of 1 µM L-364,718. The amount of labelled ligand bound to the receptor was measured by the use of a liquid scintillation counter; IC50 values were determined, being that concentration of test compound required to inhibit specific binding by 50%

[4] = rat whole brain membranes, [125I]BH-CCK-8, 25°C, 120 minutes, read-out: Receptor binding affinity IC50(nM) CCK-B
[5] = rat pancreas membranes, [3H]L-364,718, 37°C, 30 minutes, read-out: Receptor binding affinity IC50(nM) CCK-A

T1 sequence (P30553 whole entry): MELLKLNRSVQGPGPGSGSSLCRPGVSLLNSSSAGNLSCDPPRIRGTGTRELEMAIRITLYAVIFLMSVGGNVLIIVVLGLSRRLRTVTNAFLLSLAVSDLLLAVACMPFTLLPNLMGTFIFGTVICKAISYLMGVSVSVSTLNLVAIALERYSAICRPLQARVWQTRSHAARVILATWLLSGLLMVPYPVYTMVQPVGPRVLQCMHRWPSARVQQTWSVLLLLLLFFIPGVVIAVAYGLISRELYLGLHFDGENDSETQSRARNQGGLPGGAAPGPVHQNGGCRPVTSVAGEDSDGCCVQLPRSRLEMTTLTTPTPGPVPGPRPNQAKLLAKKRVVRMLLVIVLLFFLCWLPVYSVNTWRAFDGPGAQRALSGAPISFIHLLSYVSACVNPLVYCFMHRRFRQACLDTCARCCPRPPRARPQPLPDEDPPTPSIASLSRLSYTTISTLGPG

## Cc1cccc(NC(=O)NC2N=C(c3ccccn3)c3ccccc3N(CC(=O)C(C)(C)C)C2=O)c1 (racemic) [Example 27, N-((3RS)-1-tert-Butylcarbonylmethyl-2,3-dihydro-2-oxo-5-(2-pyridyl)-1H-1,4-benzodiazepin-3-yl)-N'-(3-methylphenyl) urea]
[1]; 3 µmol/kg
  Inhibidon (dose): 66% (3 µmol/kg)

## CCC(C)(C)C(=O)CN1C(=O)C(NC(=O)Nc2cccc(C)c2)N=C(c2ccccc2)c2ccccc21 (racemic) [Example 36, N-((3RS)-1-tert-Amylcarbonylmethyl-2,3-dihydro-2-oxo-5-phenyl-1H-1,4-benzodiazepin-3-yl)-N'-(3-methylphenyl) urea]
[2]
  IC50: 0.57 nM
  A/B Ratio: 1,300
[3]
  IC50: 720 nM

## CCC(C)(C)C(=O)CN1C(=O)C(NC(=O)Nc2cccc(C(=O)O)c2)N=C(c2ccccc2)c2ccccc21 (racemic) [Example 37, N-((3RS)-1-tert-Amylcarbonylmethyl-2,3-dihydro-2-oxo-5-phenyl-1H-1,4-benzodiazepin-3-yl)-N'-(3-carboxyphenyl) urea]
[2]
  IC50: 1.1 nM
  A/B Ratio: 5,100
[3]
  IC50: 5600 nM

## CN(C)c1cccc(NC(=O)NC2N=C(c3ccccn3)c3ccccc3N(CC(=O)C(C)(C)C)C2=O)c1 (racemic) [Example 38, N-((3RS)-1-tert-Butylcarbonylmethyl-2,3-dihydro-2-oxo-5-(2-pyridyl)-1H-1,4-benzodiazepin-3-yl)-N'-(3-dimethylaminophenyl) urea]
[1]; 3 µmol/kg
  Inhibidon (dose): 100% (3 µmol/kg)

## CC(C)(C)C(=O)CN1C(=O)C(NC(=O)Nc2cccc(C(=O)O)c2)N=C(c2ccccn2)c2ccccc21 (racemic) [Example 39, N-((3RS)-1-tert-Butylcarbonylmethyl-2,3-dihydro-2-oxo-5-(2-pyridyl)-1H-1,4-benzodiazepin-3-yl)-N'-(3-carboxyphenyl) urea]
[2]
  IC50: 0.1 nM
  A/B Ratio: 2,400
[3]
  IC50: 240 nM

## CN(C)c1cccc(NC(=O)NC2N=C(c3ccccc3)c3ccccc3N(CC(=O)C(C)(C)C)C2=O)c1 (racemic) [Example 41, N-((3RS)-1-tert-Butylcarbonylmethyl-2,3-dihydro-2-oxo-5-phenyl-1H-1,4-benzodiazepin-3-yl)-N'-(3-dimethylaminophenyl) urea]
[2]
  IC50: 6.2 nM
  A/B Ratio: 1,100
[3]
  IC50: 6700 nM

## CC(C)(C)C(=O)CN1C(=O)C(NC(=O)Nc2cccc([N+](=O)[O-])c2)N=C(c2ccccc2)c2ccccc21 (racemic) [Example 45, N-((3RS)-1-tert-Butylcarbonylmethyl-2,3-dihydro-2-oxo-5-phenyl-1H-1,4-benzodiazepin-3-yl)-N'-(3-nitrophenyl) urea]
[2]
  A/B Ratio: 3,700
[3]
  IC50: 590 nM

## Cc1cccc(NC(=O)N[C@@H]2N=C(c3ccccc3)c3ccccc3N(CC(=O)C(C)(C)C)C2=O)c1 [Example 26, N-((3R)-1-tert-Butylcarbonylmethyl-2,3-dihydro-2-oxo-5-phenyl-1H-1,4-benzodiazepin-3-yl)-N'-(3-methylphenyl) urea]
[1]; 3 µmol/kg
  Inhibidon (dose): 53% (3 µmol/kg)

## CNc1cccc(NC(=O)N[C@@H]2N=C(c3ccccc3)c3ccccc3N(CC(=O)C(C)(C)C)C2=O)c1 [Example 56, N-((3R)-1-tert-Butylcarbonylmethyl-2,3-dihydro-2-oxo-5-phenyl-1H-1,4-benzodiazepin-3-yl)-N'-(3-methylaminophenyl) urea]
[2]; [4]
  IC50: 0.11 nM
[2]
  A/B Ratio: 1,100
[3]; [5]
  IC50: 120 nM

## CN(C)c1cccc(NC(=O)N[C@@H]2N=C(c3ccccc3)c3ccccc3N(CC(=O)C(C)(C)C)C2=O)c1 [Example 64, N-((3R)-1-tert-Butylcarbonylmethyl-2,3-dihydro-2-oxo-5-phenyl-1H-1,4-benzodiazepin-3-yl)-N'-(3-dimethylaminophenyl) urea]
[1]; 3 µmol/kg
  Inhibidon (dose): 100% (3 µmol/kg)

## CC(C)(C)C(=O)CN1C(=O)[C@H](NC(=O)Nc2cccc(N)c2)N=C(c2ccccc2)c2ccccc21 [Example 66, N-((3R)-1-tert-Butylcarbonylmethyl-2,3-dihydro-2-oxo-5-phenyl-1H-1,4-benzodiazepin-3-yl)-N'-(3-aminophenyl) urea]
[2]; [4]
  IC50: 0.5 nM
[2]
  A/B Ratio: 1,900
[3]; [5]
  IC50: 950 nM

## Cc1cccc(NC(=O)N[C@@H]2N=C(c3ccccc3)c3ccccc3N(C)C2=O)c1 [reference compound]
[1]; 100 µmol/kg
  Inhibidon (dose): 0% (100 µmol/kg)
[2]; [4]
  IC50: 29 nM
[2]
  A/B Ratio: 410
[3]; [5]
  IC50: 12000 nM
